In experiment [1] the test system is corn seeds. As to the kind of experiment: Germination index of treated corn seeds by petri dish method. The experiment is classed as in vivo, Zea mays. The conditions noted are these: 5 ml/kg of seed. How it is done: 7 kg of untreated clean seeds of Zea mays were collected. The seeds were mixed thoroughly in a tray to make them homogeneous. 21 sub-samples of 300 g each were prepared. A polythene bag was used for the treatment of each sample with flonicamid combinations. The formulation was used at a dosage of 5 ml/kg of seed. Before treating, the seeds were checked for their initial moisture content and minimum germination percentage. After the treatment, the treated seeds were dried in a hot air chamber having temperature of 40-43° C. to maintain their original moisture content. Table 10 discloses the germination index of corn seeds by petri dish method.

Experiment [2] relates to corn seeds. Description: Seed treatment of corn seeds with flonicamid combinations: root length and fresh weight of seedlings. The format is in vivo, Zea mays. To be noted: 5 ml/kg of seed; for Fresh weight: seedlings. How it is done: 7 kg of untreated clean seeds of Zea mays were collected. The seeds were […] mixed thoroughly in a tray to make them homogeneous. 21 sub-samples of 300 g each were prepared. A polythene bag was used for the treatment of each sample with flonicamid combinations. The formulation was used at a dosage of 5 ml/kg of seed. Before treating, the seeds were checked for their initial moisture content and minimum germination percentage. After the treatment, the treated seeds were dried in a hot air chamber having temperature of 40-43° C. to maintain their original moisture content. Table 5 discloses the effect on root length and Table 6 discloses fresh weight of the seedlings.

Regarding `CC(C)C1CCC(Cc2ccc(Cl)cc2)C1(O)Cn1cncn1` (centres unmarked) [Ipconazole 25 g/L, ipconazole], the Germination index with corn seeds [1] (4th day) amounted to 7; in the experiment with corn seeds [1] (7th day), 3.

In the case of `COCC(=O)N(c1c(C)cccc1C)C(C)C(=O)OC` (centres unmarked) [Metalayxl 50 g/L, metalaxyl], in the experiment with corn seeds [2], the Root length is given as 15 cm. Besides, in the experiment on corn seeds [2], the Fresh weight amounted to 25.72 g. Further, the Germination index was determined as 7 with corn seeds [1] (4th day) and 3 in the experiment on corn seeds [1] (7th day).

For `CNC(=O)c1cc(Cl)cc(C)c1NC(=O)c1cc(Br)nn1-c1ncccc1Cl` [Chlorantraniliprole 120 g/L, Chlorantraniliprole], the Germination index was 7 with corn seeds [1] (4th day) and 1 in the experiment with corn seeds [1] (7th day).

Turning to `N#CCNC(=O)c1cnccc1C(F)(F)F` [Flonicamid 360 g/L, N-cyanomethyl-4-trifluoromethylnicotinamide], in the experiment on corn seeds [2], the Root length is listed as 12.5 cm and the Fresh weight was found to be 22.73 g. Further, the Germination index with corn seeds [1] (4th day) stood at 7. Moreover, the Germination index in the experiment with corn seeds [1] (7th day) is reported as 1.

Regarding `N#CCNC(=O)c1cnccc1C(F)(F)F` [Flonicamid 240 g/L, N-cyanomethyl-4-trifluoromethylnicotinamide], the Germination index with corn seeds [1] (4th day) is recorded as 7; in the experiment on corn seeds [1] (7th day), 3.

As for `N#Cc1c[nH]cc1-c1cccc2c1OC(F)(F)O2` [Fludioxonil 25 g/L, fludioxonil], in the experiment on corn seeds [2], the Root length came out at 14 cm. Besides, the Germination index was 8 in the experiment with corn seeds [1] (4th day) and 1 in the experiment with corn seeds [1] (7th day).

Turning to `CNC(=O)c1cc(C#N)cc(C)c1NC(=O)c1cc(Br)nn1-c1ncccc1Cl` [Cyantraniliprole 120 g/L, Cyantraniliprole], in the experiment with corn seeds [2], the Root length was 14.25 cm and the Fresh weight is given as 20.92 g. Besides, in the experiment on corn seeds [1] (4th day), the Germination index is 7. Also, in the experiment with corn seeds [1] (7th day), the Germination index came to 3.

Consider `CC1=C(C(=O)Nc2ccccc2)SCCO1` [Carboxin 200 g/L, carboxin], for which the Root length in the experiment on corn seeds [2] is 14.25 cm.

For `CN1COCN(Cc2cnc(Cl)s2)/C1=N\[N+](=O)[O-]` [Thiamethoxam], in the experiment on corn seeds [2], the Root length came to 11.75 cm. In addition, the Fresh weight with corn seeds [2] was found to be 19.31 g. Besides, the Germination index came to 7 in the experiment with corn seeds [1] (4th day) and 2 in the experiment on corn seeds [1] (7th day).
